Source: patent US20040102468A1 (Gruenenthal GmbH, priority 2001, published 2004)

How the values were obtained:
rat = rat model of rhythmic bladder contractions; cited from earlier work
[1] = tested on: female Sprague-Dawley rats with oxyhaemoglobin-induced bladder overactivity; experiment: Cystometry on conscious damaged rats (oxyhaemoglobin-induced bladder overactivity, urgency incontinence model); assay type: in vivo, rat; conditions: OxyHb 2.5 × 10^−4 M alone

Compound	effect on bladder function (rat)	BC bladder capacity, after (a) ([1]; n=5)	BC bladder capacity, change (dif.) compared with the pre-value ([1]; n=5)	ICI intercontraction interval, after (a) ([1]; n=5)	ICI intercontraction interval, change (dif.) compared with the pre-value ([1]; n=5)	MP micturition pressure, after (a) ([1]; n=5)	MP micturition pressure, change (dif.) compared with the pre-value ([1]; n=5)	TP threshold pressure, after (a) ([1]; n=5)	TP threshold pressure, change (dif.) compared with the pre-value ([1]; n=5)	BC bladder capacity, before (b) ([1]; n=5, pre-value)	ICI intercontraction interval, before (b) ([1]; n=5, pre-value)	MP micturition pressure, before (b) ([1]; n=5, pre-value)	TP threshold pressure, before (b) ([1]; n=5, pre-value)
COc1cccc(C2(O)CCCCC2CN(C)C)c1 (stereo not shown) [tramadol]	positive effect on bladder function												
oxyhaemoglobin [OxyHb]		a: 0.65 ± 0.06 ml	dif.: −29.3%	a: 3.33 ± 0.18 min	dif.: −32.9%	a: 97 ± 5 cm H2O	dif.: +64.4%	a: 9.84 ± 1.56 cm H2O	dif.: +12.8%	b: 0.92 ± 0.10 ml	b: 4.96 ± 0.33 min	b: 59 ± 8 cm H2O	b: 8.72 ± 1.31 cm H2O
